Reference: patent US5169854A, “N-substituted-furylalkenyl hydroxamic acid and N-hydroxyurea compounds having lipoxygenase inhibitory activity” (Abbott Laboratories, priority 1992, dated 1992)

Columns and labels:
[1] = tested on: Leukotriene Biosynthesis; assay: Inhibition of leukotriene biosynthesis in vivo after oral administration, rat peritoneal anaphylaxis model; settings: oral gavage 100 μmol/kg, one hour prior to antigen challenge, peritoneal fluid leukotrienes 15 min after challenge
Protocol: Inhibition of the biosynthesis of leuktrienes in vivo after oral administration of compound was determined using a rat peritoneal anaphylaxis model in a similar manner as that described by Young and coworkers (Young, P. R.; Dyer, R. D.; Carter, G. W. Fed. Proc., Fed. Am. Soc. Exp. Biol. 1985 (44), 1185). In this model rats were injected intraperitoneally (ip) with rabbit antibody to bovine serum albumin (BSA) and three hours later injected ip with BSA to induce an antgen-antibody response. Rats were sacrificed 15 minutes after this challenge and the peritoneal fluids were collected and analyzed for leukotriene levels. Test compounds were administered by gavage one hour prior to the antigen challenge. Percent inhibition values were determined by comparing the treatment group to the mean of the control group.

[2] = molecular target: T1, 5-Lipoxygenase (Homo sapiens, UniProt P09917); assay: Inhibition of calcium ionophore A23187-induced LTB4 biosynthesis in human whole blood (5-Lipoxygenase Inhibitory Activity); assay type: cell-based; parameters: endogenous in cells; host or cells: human heparinized whole blood (blood leukocytes)
T1 sequence (P09917 1-674): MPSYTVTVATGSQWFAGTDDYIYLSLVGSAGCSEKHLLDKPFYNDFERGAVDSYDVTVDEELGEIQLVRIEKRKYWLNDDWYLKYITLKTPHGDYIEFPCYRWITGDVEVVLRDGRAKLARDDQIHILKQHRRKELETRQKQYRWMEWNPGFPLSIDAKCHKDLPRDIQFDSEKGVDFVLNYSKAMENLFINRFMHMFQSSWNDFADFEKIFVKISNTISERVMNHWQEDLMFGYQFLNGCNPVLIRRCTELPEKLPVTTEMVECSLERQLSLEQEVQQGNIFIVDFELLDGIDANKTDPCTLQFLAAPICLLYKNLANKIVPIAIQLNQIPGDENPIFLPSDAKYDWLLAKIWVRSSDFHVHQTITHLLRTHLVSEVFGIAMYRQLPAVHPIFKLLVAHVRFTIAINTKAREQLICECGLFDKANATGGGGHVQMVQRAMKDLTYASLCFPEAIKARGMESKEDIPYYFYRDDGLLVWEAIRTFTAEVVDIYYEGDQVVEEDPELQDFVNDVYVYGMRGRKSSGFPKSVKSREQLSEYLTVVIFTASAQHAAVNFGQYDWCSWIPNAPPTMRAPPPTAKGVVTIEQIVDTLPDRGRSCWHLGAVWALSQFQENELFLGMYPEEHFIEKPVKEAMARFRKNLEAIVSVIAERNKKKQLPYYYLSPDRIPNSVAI
Protocol: Inhibition of leukotriene biosynthesis was evaluated in an assay, involving calcium ionophore-induced LTB4 biosynthesis expressed human whole blood. Human heparinized whole blood was preincubated with test compounds or vehicle for 15 min at 37° C. followed by calcium ionophore A23187 challenge (final concentration of 8.3 μM) and the reaction terminated after 30 min by adding two volumes of methanol containing prostaglandin B2 as an internal recovery standard. The methanol extract was analyzed for LTB4 using a commercially available radioimmunoassay.

Compound: CC(/C=C/c1ccc(Oc2ccc(F)cc2)o1)N(O)C(N)=O (stereo not shown) [Example 1, E-N-[4-(5-(4-Fluorophenoxy)-2-furanyl)but-3-en-2-yl]-N-hydroxyurea]
- Percent Inhibition of Leukotriene Biosynthesis at an Oral Dose of 100 μmol/kg [1]: 98%
- IC50 ([2]; human heparinized whole blood, LTB4 by radioimmunoassay, A23187 8.3 μM, 15 min preincubation at 37° C.): 160 nM

Compound: NC(=O)N(O)CC=Cc1ccc(Oc2ccccc2)o1 [Example 2, N-hydroxy-N-[3-(5-phenoxyfur-2-yl)prop-2-enyl]urea]
- Percent Inhibition of Leukotriene Biosynthesis at an Oral Dose of 100 μmol/kg [1]: 99%

Compound: Z-N-[4-(5-(4 -fluorophenoxy)-2-furanyl)-2-fluorobut-3-en-2-yl]-N-hydroxyurea [Example 3]
- 5-Lipoxygenase Inhibitory Activity, percent inhibition ([2]; at 0.39 (10^-6 M), human whole blood LTB4): 77%
